IC90, IC50 and growth inhibition data for 68 molecules are collected here from PubChem BioAssay AID504903 (Southern Research Specialized Biocontainment Screening …, 2011).

The test system of assay [1] is M. tuberculosis H37Rv growth in 7H9 medium. Briefly: M. tuberculosis growth inhibition, dose response, H37Rv, 7H9 media, purified and synthesized compounds, set 5 (AID 504903). As to conditions: for IC50: measured here: M. tuberculosis growth IC50.
Assay in assay [2]: as above
As to conditions: M. tuberculosis H37Rv growth in 7H9 medium; at 100 µM (top of the series).

The source made the active and inactive calls. The rule behind the calls is not given here.

Usually IC90 stands for the concentration needed for an effect of 90%. Broadly, the IC50 is the point on the concentration scale where inhibition reaches its midpoint. In the case of `CC(C)CCNC(=O)CSc1nc2c(c(=O)[nH]1)CCC2`, in assay [1], the IC90 is 1.03 µM and the IC50 came to 0.6 µM.
Consider `Cc1nc(SCC(=O)NC2CCCCC2)[nH]c(=O)c1C`, for which, in assay [1], the concentration for an effect of 90% (IC90) was 0.23 µM and the IC50 is less than 0.01 µM.
For `Cc1cc(=O)[nH]c(=S)[nH]1`, the growth inhibition in assay [2] is -8.51% (inactive).
Turning to `Cc1cccc(/C=C/C(=O)c2ccc([N+](=O)[O-])o2)c1`, in assay [1], the IC90 is 0.8 µM and the IC50 came out at 0.31 µM.
With `O=C(CSc1nc2c(c(=O)[nH]1)CCCC2)NC1CCCCC1`, in assay [1], the IC90 is less than 0.07 µM and the IC50 was less than 0.03 µM.
The corresponding values for `Cc1nc(SCC(=O)NCCC(C)C)[nH]c(=O)c1C` are 9.79 µM and 4.87 µM.
For `O=c1[nH]c(SCc2ccccc2Cl)nc2c1CCCC2`, in assay [2], the growth inhibition was -4.24% (inactive).
On the same count and under the same terms, then `Cc1nc(SCc2ccccc2Cl)[nH]c(=O)c1C`, with -6.23% (inactive).
In the case of `CN(C(=O)CSc1nc2ccccc2c(=O)[nH]1)C1CCCCC1`, in assay [2], the growth inhibition was -0.89% (inactive).
Same read-out and setting: the value for `Cn1c(SCC(=O)NC2CCCCC2)nc2ccccc2c1=O` was -10.1% (inactive); that for `O=C(CSc1ncccn1)NC1CCCCC1` was -3.3% (inactive).
Turning to `O=C(CSc1nc2ccccc2c(=O)[nH]1)NC1CCCCC1`, in assay [1], the 90% effect concentration (IC90) is 0.31 µM and the IC50 turned out to be 0.16 µM.
Take `CCSc1nc(C)c(C)c(=O)[nH]1`: the growth inhibition in assay [2] is -1.81% (inactive).
As to `CCOc1ccc(-c2cc(C)[n+](CCc3ccc(OC)c(OC)c3)c(-c3ccc(OCC)cc3)c2)cc1`, in assay [1], the IC90 is 0.86 µM and the IC50 was found to be 0.48 µM.
On the same counts, the results for `NC[C@H]1O[C@H](O[C@H]2[C@H](O)[C@@H](O[C@H]3O[C@H](CO)[C@@H](O)[C@H](N)[C@H]3O)[C@H](N)C[C@@H]2N)[C@H](O)[C@@H](O)[C@@H]1O` are 2.36 µM and 1.14 µM.
`CC[N+](C)(CC)CCCCOc1ccc2c(c1)C(=O)c1cc(OCCCC[N+](C)(CC)CC)ccc1-2`: in assay [1], the IC90 is 2.45 µM and the IC50 came to 1.5 µM.
Consider `NC(=O)CSc1nc2ccccc2c(=O)[nH]1`, for which the growth inhibition in assay [2] was 3.23% (inactive).
Still for that read-out and setting: then `CCC(Sc1nc2c(c(=O)[nH]1)CCC2)C(=O)Nc1cccc(OC)c1` (stereo not drawn), with 0.63% (inactive).
Turning to `Nc1c(C(=O)NC2CCCCC2)nsc1C(=O)OCC(=O)NC1CCCCC1`, in assay [1], the 90% effect concentration (IC90) is 42.4 µM and the IC50 was 1.97 µM.
The corresponding values for `Cc1ccc(C(=O)N/N=C(/CC(=O)c2cccs2)C(F)(F)F)cc1` are 2.94 µM and 1.25 µM.
As to `NC(=O)c1cnccn1`, in assay [2], the growth inhibition was 0.23% (inactive).
The same measure, in the same setting: then `Cc1ccc(NC(=O)CSc2nc3ccccc3c(=O)[nH]2)cc1Cl`, with -6.21% (inactive); and `CC(Sc1nc2ccccc2c(=O)[nH]1)C(=O)NC1CCCCC1` (stereo not drawn), with -8.54% (inactive).
Consider `CO[C@H]1/C=C/O[C@@]2(C)Oc3c(C)c(O)c4c(O)c(c(C=NN5CCN(C)CC5)c(O)c4c3C2=O)NC(=O)/C(C)=C\C=C\[C@H](C)[C@H](O)[C@@H](C)[C@@H](O)[C@@H](C)[C@H](OC(C)=O)[C@@H]1C`, for which, in assay [1], the IC90 was 0.01 µM and the IC50 was less than 0.01 µM.
The corresponding values for `COc1c(N2CCNC(C)C2)c(F)cc2c(=O)c(C(=O)O)cn(C3CC3)c12` (stereo not drawn) are 0.12 µM and 0.09 µM.
As to `CC(C)CCNC(=O)CSc1nc2ccccc2c(=O)[nH]1`, in assay [1], the IC90 was 0.12 µM and the IC50 is less than 0.06 µM.
In the case of `O=C(CSc1nccc(=O)[nH]1)NC1CCCCC1`, in assay [2], the growth inhibition was -5.41% (inactive).
As for `COc1ccc(NC(=O)CSc2nc3ccccc3c(=O)[nH]2)cc1`, in assay [2], the growth inhibition is 4.59% (inactive).
Same read-out and setting: then `COc1cccc(NC(=O)CSc2nc3c(c(=O)[nH]2)CCC3)c1`, with -9.73% (inactive).
With `Cc1ccc(NC(=O)COC(=O)CCc2c[nH]c3ccccc23)cc1[N+](=O)[O-]`, in assay [1], the IC90 is 3.59 µM and the IC50 stood at 0.86 µM.
In the case of `Cc1cc(=O)[nH]c(SCC(=O)NC2CCCCC2)n1`, the growth inhibition in assay [2] is 8.24% (inactive).
As for `COC(=O)c1ccc(CNc2c(N3CCCC3)c(=O)c2=O)cc1`, in assay [2], the growth inhibition is 23.6% (inactive).
Take `CCCc1cc(C(N)=S)ccn1`: the IC50 in assay [1] was found to be 6.01 µM.
In the case of `Cc1cnc(SCC(=O)NC2CCCCC2)[nH]c1=O`, the growth inhibition in assay [2] is -2.75% (inactive).
`Cc1c[nH]c(=S)[nH]c1=O`: the growth inhibition in assay [2] was -1.72% (inactive).
On the same count and under the same terms, the value for `COc1cccc(NC(=O)CSc2nc3ccccc3c(=O)[nH]2)c1` was -1.31% (inactive); that for `CCC(Sc1nc2ccccc2c(=O)[nH]1)C(=O)NC1CCCCC1` (stereo not drawn) was -1.65% (inactive).
In turn, `O=C(CSc1ccccn1)NC1CCCCC1` gave an IC50 in assay [1] greater than 95.8 µM.
Take `Cc1cccc(-c2oc3ccc(-c4ccc5c(c4)OCO5)cc3c2C#Cc2cncn2C)c1`: in assay [1], the 90% effect concentration (IC90) is 3.03 µM and the IC50 was 2.52 µM.
Turning to `Cc1cc(C)n2nc(N)c(N=Nc3ccccc3)c2n1`, in assay [1], the IC90 is 5.54 µM and the IC50 came to 3.88 µM.
On to `Cc1nc(SCC(=O)N(C)c2ccccc2)[nH]c(=O)c1C`, for which the growth inhibition in assay [2] is -9.88% (inactive).
Turning to `Cc1[nH]c2ccccc2c1C(=O)COC(=O)c1ccc([N+](=O)[O-])s1`, in assay [1], the IC50 is greater than 50.3 µM.
As for `Nc1cc(=O)[nH]c(SCC(=O)NC2CCCCC2)n1`, the growth inhibition in assay [2] is -2.55% (inactive).
Same read-out and setting: then `COC(=O)C(Nc1nc(SCC(=O)NC2CCCCC2)nc2ccccc12)c1ccccc1` (stereo not drawn), with 0.4% (inactive); and `Cc1[nH]c(=S)[nH]c(=O)c1C`, with -6.68% (inactive).
For the molecule `CC(C)N=c1cc2n(-c3ccc(Cl)cc3)c3ccccc3nc-2cc1Nc1ccc(Cl)cc1`, in assay [1], the IC90 was 0.31 µM and the IC50 is 0.01 µM.
On the same counts, the results for `O=C(CSc1nc2c(c(=O)[nH]1)CCC2)NC1CCCCC1` are less than 0.07 µM and less than 0.04 µM.
For the molecule `CCOC1OC(=O)C(Cl)=C1Nc1ccccc1C` (stereo not drawn), in assay [1], the 90% effect concentration (IC90) was 5.45 µM and the IC50 was determined as 2.9 µM.
Consider `CC1CCN(C(=O)CSc2nc3ccccc3c(=O)[nH]2)CC1`, for which the growth inhibition in assay [2] was -3.58% (inactive).
For the molecule `O=C(CSc1nc2ccccc2c(=O)[nH]1)NC1CCCC1`, in assay [1], the concentration for an effect of 90% (IC90) is 0.55 µM and the IC50 stood at 0.03 µM.
For `CC(C)NC(=O)CSc1nc2ccccc2c(=O)[nH]1`, in assay [1], the IC90 is 18.8 µM and the IC50 was found to be 4.77 µM.
Regarding `O=c1[nH]c(=S)[nH]c2ccccc12`, the growth inhibition in assay [2] was -4.57% (inactive).
For `CNC(=O)CSc1nc2ccccc2c(=O)[nH]1`, the IC50 in assay [1] was found to be 56.2 µM.
Turning to `NNC(=O)c1ccncc1`, in assay [1], the IC90 was 0.32 µM and the IC50 worked out at 0.19 µM.
Turning to `CN[C@@H]1[C@H](O[C@H]2[C@H](O[C@H]3[C@H](O)[C@@H](O)[C@H](N=C(N)N)[C@@H](O)[C@@H]3N=C(N)N)O[C@@H](C)[C@]2(O)C=O)O[C@@H](CO)[C@H](O)[C@H]1O`, in assay [1], the IC90 was 0.14 µM and the IC50 came out at 0.07 µM.
The corresponding values for `Cc1cc(Br)ccc1NC(=O)c1cnc(N2CCN(c3ccccn3)CC2)c2ccccc12` are 6.16 µM and 0.68 µM.
Regarding `Cc1nc(SCC(N)=O)[nH]c(=O)c1C`, the growth inhibition in assay [2] was 1.58% (inactive).
`c1ccc(/N=C2\N=C(Nc3ccccn3)c3ccccc32)nc1`: in assay [1], the concentration for an effect of 90% (IC90) was 1.33 µM and the IC50 is 0.75 µM.
In the case of `Cc1nc(SCC(=O)NC2CCCC2)[nH]c(=O)c1C`, in assay [1], the IC90 is 10.5 µM and the IC50 came to 4.49 µM.
In the case of `CN1CCC(NC(=O)CSc2nc3ccccc3c(=O)[nH]2)CC1`, the growth inhibition in assay [2] was -7.75% (inactive).
Same read-out and setting: then `O=C(CSc1nc2ccccc2c(=O)[nH]1)N1CCOCC1`, with -3.23% (inactive).
For `COC(=O)C(C)Oc1ccc(Cc2ncc(C(F)(F)F)cc2Cl)cc1` (stereo not drawn), in assay [1], the IC90 is 7.66 µM and the IC50 stood at 3.11 µM.
Regarding `CCC(Sc1nc2ccccc2c(=O)[nH]1)C(=O)Nc1cccc(OC)c1` (stereo not drawn), the growth inhibition in assay [2] was -2.52% (inactive).
As for `O=C(CSc1nc2ccccc2c(=O)[nH]1)NCc1ccc(Cl)cc1`, in assay [1], the IC90 is 0.98 µM and the IC50 was determined as 0.44 µM.
For `CCSc1nc2ccccc2c(=O)[nH]1`, the growth inhibition in assay [2] was -4.06% (inactive).
Same read-out and setting: the value for `CCOC(=O)CSc1nc(C)c(C)c(=O)[nH]1` was -4.51% (inactive).
For `CC1CCN(C(=O)C2CCN(c3nnc(-n4cccc4)s3)CC2)CC1`, in assay [1], the IC90 was 4.66 µM and the IC50 is 2.55 µM.
`CN(C)C(=O)CSc1nc2ccccc2c(=O)[nH]1`: in assay [2], the growth inhibition was -2.5% (inactive).
